In US10597388B2, “Pyridazinone herbicides” (FMC CORPORATION, priority 2014, dated 2020):

Legend:
Assay in all cases: Test D controlled growth environment herbicide test, pre- and postemergence
Type in all cases: in vivo
[1] = tested on: speedwell (bird's-eye speedwell, Veronica persica)
Text: (§1) Seeds of plant species selected from bluegrass (annual bluegrass, Poa annua), blackgrass (Alopecurus myosuroides), Canada thistle (Cirsium arvense), canarygrass (Phalaris minor), chickweed (common chickweed, Stellaria media), geranium, cutleaf (cutleaf geranium, Geranium dissectum), galium (catchweed bedstraw, Galium aparine), bromegrass, downy (downy bromegrass, Bromus tectorum), field poppy (Papaver rhoeas), field violet (Viola arvensis), foxtail, green (green foxtail, Setaria viridis), deadnettle (henbit deadnettle, Lamium amplexicaule), ryegrass, Italian (Italian ryegrass, Lolium multiflorum), kochia (Kochia scoparia), lambsquarters (Chenopodium album), oilseed rape (Brassica napus), pigweed (Amaranthus retroflexus), chamomile (scentless chamomile, Matricaria inodora), Russian thistle (Salsola kali), speedwell (bird's-eye speedwell, Veronica persica), barley, spring (spring barley, Hordeum vulgare), wheat, spring (spring wheat, Triticum aestivum), buckwheat, wild (wild buckwheat, Polygonum convolvulus), mustard, wild (wild mustard, Sinapis arvensis), oat, wild (wild oat, Avena fatua), radish, wild (wild radish, Raphanus raphanistrum), windgrass (Apera spica-venti), barley, winter (winter barley, Hordeum vulgare), and wheat, winter (winter wheat, Triticum aestivum) were planted into a silt loam soil and treated preemergence with test chemicals formulated in a non-phytotoxic solvent mixture which included a surfactant.
(§2) At the same time, these species were planted in pots containing Redi-Earth® planting medium (Scotts Company, 14111 Scottslawn Road, Marysville, Ohio 43041) comprising spaghnum peat moss, vermiculite, wetting agent and starter nutrients and treated with postemergence applications of the test chemicals formulated in the same manner. Plants ranged in height from 2 to 18 cm (1- to 4-leaf stage). Treated plants and controls were maintained in a controlled growth environment for 14 to 21 d after which time all species were compared to controls and visually evaluated. Plant response ratings, summarized in Table D, are based on a scale of 0 to 100 where 0 is no effect and 100 is complete control. A dash (-) response means no test result.

[2] = tested on: mustard, wild (wild mustard, Sinapis arvensis)
Text: as §1, §2

[3] = tested on: lambsquarters (Chenopodium album)
Text: as §1, §2

[4] = tested on: windgrass (Apera spica-venti)
Text: as §1, §2

[5] = tested on: chamomile (scentless chamomile, Matricaria inodora)
Text: as §1, §2

[6] = tested on: oilseed rape (Brassica napus)
Text: as §1, §2

[7] = tested on: radish, wild (wild radish, Raphanus raphanistrum)
Text: as §1, §2

[8] = tested on: barley, spring (spring barley, Hordeum vulgare)
Text: as §1, §2

[9] = tested on: wheat, spring (spring wheat, Triticum aestivum)
Text: as §1, §2

[10] = tested on: oat, wild (wild oat, Avena fatua)
Text: as §1, §2

[11] = tested on: deadnettle (henbit deadnettle, Lamium amplexicaule)
Text: as §1, §2

[12] = tested on: bromegrass, downy (downy bromegrass, Bromus tectorum)
Text: as §1, §2

[13] = tested on: field violet (Viola arvensis)
Text: as §1, §2

[14] = Postemergence, 31 g ai/ha, scale 0 to 100 (0 no effect, 100 complete control)
[15] = Postemergence, 125 g ai/ha, visual rating on scale 0 (no effect) to 100 (complete control), 14 to 21 d
[16] = Postemergence, 250 g ai/ha, scale 0 to 100 (0 no effect, 100 complete control)
[17] = Preemergence, 62 g ai/ha, scale 0 to 100 (0 no effect, 100 complete control)
[18] = Preemergence, 125 g ai/ha, scale 0 to 100 (0 no effect, 100 complete control)
[19] = Preemergence, 250 g ai/ha, scale 0 to 100 (0 no effect, 100 complete control)
[20] = postemergence, 62 g ai/ha, scale 0 to 100, 0 no effect, 100 complete control

`CCC(=O)Oc1c(C)nn(C)c(=O)c1-c1c(C)sc2c(C)cc(C)cc12` [Compound 28] was tested, and the “Speedwell plant response rating” value [1, 14] was 60, the “Plant response rating, Speedwell” value [1, 15] was 100 and the “Plant response rating, Speedwell” value [1, 16] was 100. The “Plant response rating (scale of 0 to 100), Speedwell” value ([1]; Preemergence, 31 g ai/ha) was 95, the “Plant response rating, Speedwell” value [1, 17] was 95 and the “Plant response rating, Speedwell” value [1, 18] was 95. The “Plant response rating, Speedwell” value [1, 19] was 100, the “Plant response rating, Speedwell” value [1, 20] was 85 and the “Mustard, Wild plant response rating” value [2, 14] was 35. For the same compound, the “Plant response rating, Mustard, Wild” value [2, 15] was 70, the “Plant response rating, Mustard, Wild” value [2, 16] was 70 and the “Plant response rating (scale of 0 to 100), Mustard, Wild” value ([2]; Preemergence, 31 g ai/ha) was 10. For the same compound, the “Plant response rating, Mustard, Wild” value [2, 17] was 15, the “Plant response rating, Mustard, Wild” value [2, 18] was 30 and the “Plant response rating, Mustard, Wild” value [2, 19] was 55. The “Plant response rating, Mustard, Wild” value [2, 20] was 45, the “Lambsquarters plant response rating” value [3, 14] was 80 and the “Plant response rating, Lambsquarters” value [3, 15] was 90. For the same compound, the “Plant response rating, Lambsquarters” value [3, 16] was 90, the “Plant response rating (scale of 0 to 100), Lambsquarters” value ([3]; Preemergence, 31 g ai/ha) was 100 and the “Plant response rating, Lambsquarters” value [3, 17] was 100. The “Plant response rating, Lambsquarters” value [3, 18] was 100, the “Plant response rating, Lambsquarters” value [3, 19] was 100 and the “Plant response rating, Lambsquarters” value [3, 20] was 85. The “Windgrass plant response rating” value [4, 14] was 70, the “Plant response rating, Windgrass” value [4, 15] was 85 and the “Plant response rating, Windgrass” value [4, 16] was 85. The “Plant response rating (scale of 0 to 100), Windgrass” value ([4]; Preemergence, 31 g ai/ha) was 70, the “Plant response rating, Windgrass” value [4, 17] was 75 and the “Plant response rating, Windgrass” value [4, 18] was 90. For the same compound, the “Plant response rating, Windgrass” value [4, 19] was 100, the “Plant response rating, Windgrass” value [4, 20] was 80 and the “Chamomile plant response rating” value [5, 14] was 85. For the same compound, the “Plant response rating, Chamomile” value [5, 15] was 90, the “Plant response rating, Chamomile” value [5, 16] was 95 and the “Plant response rating (scale of 0 to 100), Chamomile” value ([5]; Preemergence, 31 g ai/ha) was 100. The “Plant response rating, Chamomile” value [5, 17] was 95, the “Plant response rating, Chamomile” value [5, 18] was 100 and the “Plant response rating, Chamomile” value [5, 19] was 100. The “Plant response rating, Chamomile” value [5, 20] was 90, the “Oilseed Rape plant response rating” value [6, 14] was 65 and the “Plant response rating, Oilseed Rape” value [6, 15] was 65. The “Plant response rating, Oilseed Rape” value [6, 16] was 85, the “Plant response rating (scale of 0 to 100), Oilseed Rape” value ([6]; Preemergence, 31 g ai/ha) was 0 and the “Plant response rating, Oilseed Rape” value [6, 17] was 0. The “Plant response rating, Oilseed Rape” value [6, 18] was 10, the “Plant response rating, Oilseed Rape” value [6, 19] was 25 and the “Plant response rating, Oilseed Rape” value [6, 20] was 65. The “Radish, Wild plant response rating” value [7, 14] was 85, the “Plant response rating, Radish, Wild” value [7, 15] was 85 and the “Plant response rating, Radish, Wild” value [7, 16] was 95. The “Plant response rating (scale of 0 to 100), Radish, Wild” value ([7]; Preemergence, 31 g ai/ha) was 0, the “Plant response rating, Radish, Wild” value [7, 17] was 0 and the “Plant response rating, Radish, Wild” value [7, 18] was 35. The “Plant response rating, Radish, Wild” value [7, 19] was 30, the “Plant response rating, Radish, Wild” value [7, 20] was 100 and the “Plant response rating, Barley, Spring” value [8, 14] was 5. The “Plant response rating, Barley, Spring” value [8, 15] was 5, the “Plant response rating, Barley, Spring” value [8, 16] was 10 and the “Plant response rating (scale of 0 to 100), Barley, Spring” value ([8]; Preemergence, 31 g ai/ha) was 0. For the same compound, the “Plant response rating, Barley, Spring” value [8, 17] was 0, the “Plant response rating, Barley, Spring” value [8, 18] was 0 and the “Barley, Spring plant response rating” value [8, 19] was 0. For the same compound, the “Plant response rating, Barley, Spring” value [8, 20] was 5, the “Wheat, Spring plant response rating” value [9, 14] was 0 and the “Plant response rating, Wheat, Spring” value [9, 15] was 10. For the same compound, the “Plant response rating, Wheat, Spring” value [9, 16] was 20, the “Plant response rating (scale of 0 to 100), Wheat, Spring” value ([9]; Preemergence, 31 g ai/ha) was 0 and the “Plant response rating, Wheat, Spring” value [9, 17] was 0. For the same compound, the “Plant response rating, Wheat, Spring” value [9, 18] was 5, the “Plant response rating, Wheat, Spring” value [9, 19] was 25 and the “Plant response rating, Wheat, Spring” value [9, 20] was 5. The “Oat, Wild plant response rating” value [10, 14] was 75, the “Plant response rating, Oat, Wild” value [10, 15] was 90 and the “Plant response rating, Oat, Wild” value [10, 16] was 95. For the same compound, the “Plant response rating (scale of 0 to 100), Oat, Wild” value ([10]; Preemergence, 31 g ai/ha) was 85, the “Plant response rating, Oat, Wild” value [10, 17] was 85 and the “Plant response rating, Oat, Wild” value [10, 18] was 90. For the same compound, the “Plant response rating, Oat, Wild” value [10, 19] was 100, the “Plant response rating, Oat, Wild” value [10, 20] was 85 and the “Deadnettle plant response rating” value [11, 14] was 10. The “Plant response rating, Deadnettle” value [11, 15] was 35, the “Plant response rating, Deadnettle” value [11, 16] was 70 and the “Plant response rating (scale of 0 to 100), Deadnettle” value ([11]; Preemergence, 31 g ai/ha) was 0. For the same compound, the “Plant response rating, Deadnettle” value [11, 17] was 0, the “Plant response rating, Deadnettle” value [11, 18] was 5 and the “Plant response rating, Deadnettle” value [11, 19] was 5. For the same compound, the “Plant response rating, Deadnettle” value [11, 20] was 35, the “Bromegrass, Downy plant response rating” value [12, 14] was 15 and the “Plant response rating, Bromegrass, Downy” value [12, 15] was 40. For the same compound, the “Plant response rating, Bromegrass, Downy” value [12, 16] was 70, the “Plant response rating (scale of 0 to 100), Bromegrass, Downy” value ([12]; Preemergence, 31 g ai/ha) was 45 and the “Plant response rating, Bromegrass, Downy” value [12, 17] was 55. The “Plant response rating, Bromegrass, Downy” value [12, 18] was 70, the “Plant response rating, Bromegrass, Downy” value [12, 19] was 85 and the “Plant response rating, Bromegrass, Downy” value [12, 20] was 25. For the same compound, the “Field Violet plant response rating” value [13, 14] was 80, the “Plant response rating, Field Violet” value [13, 15] was 85 and the “Plant response rating, Field Violet” value [13, 16] was 90. The “Plant response rating (scale of 0 to 100), Field Violet” value ([13]; Preemergence, 31 g ai/ha) was 75, the “Plant response rating, Field Violet” value [13, 17] was 85 and the “Plant response rating, Field Violet” value [13, 18] was 100. For the same compound, the “Plant response rating, Field Violet” value [13, 19] was 100 and the “Plant response rating, Field Violet” value [13, 20] was 75.
